# In ChEMBL document CHEMBL4011590, “Structure-activity relationship studies on 3,5-dinitrophenyl tetrazoles as antitubercular agents” (Eur J Med Chem, 2017):
# Assays:
# Candida tropicalis [1] = assay: Antifungal activity against Candida tropicalis 156 after 48 hrs by broth microdilution method; format: functional; settings: Candida tropicalis, 156, 48 h
# Klebsiella pneumoniae [2] = assay: Antibacterial activity against Klebsiella pneumoniae HK11750/08 after 24 hrs by broth microdilution method; format: functional; settings: HK11750/08, 24 h
# Trichosporon asahii [3] = assay: Antifungal activity against Trichosporon asahii 1188 after 48 hrs by broth microdilution method; format: functional; settings: Trichosporon asahii, 1188, 48 h
# [4] = test system: Staphylococcus epidermidis; assay: Antibacterial activity against Staphylococcus epidermidis HK6966/08 after 24 hrs by broth microdilution method; format: functional; settings: HK6966/08, 24 h
# Mycobacterium avium [5] = assay: Antimycobacterial activity against Mycobacterium avium CNCTC My 330/80 after 21 days by micromethod; format: functional; settings: CNCTC My 330/80, 504 h
# Trichosporon asahii [6] = assay: Antifungal activity against Trichosporon asahii 1188 after 24 hrs by broth microdilution method; format: functional; settings: Trichosporon asahii, 1188, 24 h
# [7] = test system: Mycobacterium tuberculosis; assay: Antimycobacterial activity against Mycobacterium tuberculosis H37Rv CNCTC My 331/88 after 14 days by micromethod; format: functional; settings: H37Rv CNCTC My 331/88, 336 h
# [8] = test system: Trichophyton mentagrophytes; assay: Antifungal activity against Trichophyton mentagrophytes 445 after 72 hrs by broth microdilution method; format: functional; settings: Trichophyton mentagrophytes, 445, 72 h
# Pseudomonas aeruginosa [9] = assay: Antibacterial activity against Pseudomonas aeruginosa ATCC 9027 after 48 hrs by broth microdilution method; format: functional; settings: ATCC 9027, 48 h
# Mycobacterium kansasii [10] = assay: Antimycobacterial activity against Mycobacterium kansasii isolate 6509/96 after 14 days by micromethod; format: functional; settings: isolate 6509/96, 336 h
# Staphylococcus aureus [11] = assay: Antibacterial activity against methicillin-resistant Staphylococcus aureus HK5996/08 after 24 hrs by broth microdilution method; format: functional; settings: HK5996/08, 24 h
# Candida albicans [12] = assay: Antifungal activity against Candida albicans ATCC 44859 after 24 hrs by broth microdilution method; format: functional; settings: ATCC 44859, 24 h
# [13] = test system: Mycobacterium tuberculosis; assay: Antimycobacterial activity against Mycobacterium tuberculosis H37Rv CNCTC My 331/88 after 21 days by micromethod; format: functional; settings: H37Rv CNCTC My 331/88, 504 h
# Aspergillus fumigatus [14] = assay: Antifungal activity against Aspergillus fumigatus 231 after 48 hrs by broth microdilution method; format: functional; settings: Aspergillus fumigatus, 231, 48 h
# Enterococcus sp. [15] = assay: Antibacterial activity against Enterococcus sp. HK14365/08 after 24 hrs by broth microdilution method; format: functional; settings: HK14365/08, 24 h
# Klebsiella pneumoniae [16] = assay: Antibacterial activity against extended spectrum beta-lactamase producing Klebsiella pneumoniae HK14368/08 after 24 hrs by broth microdilution method; format: functional; settings: HK14368/08, 24 h
# Mycobacterium kansasii [17] = assay: Antimycobacterial activity against Mycobacterium kansasii CNCTC My 235/80 after 21 days by micromethod; format: functional; settings: CNCTC My 235/80, 504 h
# Mycobacterium kansasii [18] = assay: Antimycobacterial activity against Mycobacterium kansasii CNCTC My 235/80 after 14 days by micromethod; format: functional; settings: CNCTC My 235/80, 336 h
# [19] = test system: Staphylococcus epidermidis; assay: Antibacterial activity against Staphylococcus epidermidis HK6966/08 after 48 hrs by broth microdilution method; format: functional; settings: HK6966/08, 48 h
# Mycobacterium kansasii [20] = assay: Antimycobacterial activity against Mycobacterium kansasii isolate 6509/96 after 21 days by micromethod; format: functional; settings: isolate 6509/96, 504 h
# Aspergillus fumigatus [21] = assay: Antifungal activity against Aspergillus fumigatus 231 after 24 hrs by broth microdilution method; format: functional; settings: Aspergillus fumigatus, 231, 24 h
# Staphylococcus aureus [22] = assay: Antibacterial activity against methicillin-resistant Staphylococcus aureus HK5996/08 after 48 hrs by broth microdilution method; format: functional; settings: HK5996/08, 48 h
# Staphylococcus aureus [23] = assay: Antibacterial activity against Staphylococcus aureus ATCC 6538 after 48 hrs by broth microdilution method; format: functional; settings: ATCC 6538, 48 h
# Enterococcus sp. [24] = assay: Antibacterial activity against Enterococcus sp. HK14365/08 after 48 hrs by broth microdilution method; format: functional; settings: HK14365/08, 48 h
# Lichtheimia corymbifera [25] = assay: Antifungal activity against Absidia corymbifera 272 after 24 hrs by broth microdilution method; format: functional; settings: Lichtheimia corymbifera, 272, 24 h
# Klebsiella pneumoniae [26] = assay: Antibacterial activity against extended spectrum beta-lactamase producing Klebsiella pneumoniae HK14368/08 after 48 hrs by broth microdilution method; format: functional; settings: HK14368/08, 48 h
# Mycobacterium kansasii [27] = assay: Antimycobacterial activity against Mycobacterium kansasii CNCTC My 235/80 after 7 days by micromethod; format: functional; settings: CNCTC My 235/80, 168 h
# Pichia kudriavzevii [28] = assay: Antifungal activity against Candida krusei E28 after 24 hrs by broth microdilution method; format: functional; settings: E28, 24 h
# Pichia kudriavzevii [29] = assay: Antifungal activity against Candida krusei E28 after 48 hrs by broth microdilution method; format: functional; settings: E28, 48 h
# Candida albicans [30] = assay: Antifungal activity against Candida albicans ATCC 44859 after 48 hrs by broth microdilution method; format: functional; settings: ATCC 44859, 48 h
# Candida tropicalis [31] = assay: Antifungal activity against Candida tropicalis 156 after 24 hrs by broth microdilution method; format: functional; settings: Candida tropicalis, 156, 24 h
# Staphylococcus aureus [32] = assay: Antibacterial activity against Staphylococcus aureus ATCC 6538 after 24 hrs by broth microdilution method; format: functional; settings: ATCC 6538, 24 h
# [33] = test system: Trichophyton mentagrophytes; assay: Antifungal activity against Trichophyton mentagrophytes 445 after 120 hrs by broth microdilution method; format: functional; settings: Trichophyton mentagrophytes, 445, 120 h
# Nakaseomyces glabratus [34] = assay: Antifungal activity against Candida glabrata 20/I after 24 hrs by broth microdilution method; format: functional
# Mycobacterium kansasii [35] = assay: Antimycobacterial activity against Mycobacterium kansasii isolate 6509/96 after 7 days by micromethod; format: functional; settings: isolate 6509/96, 168 h
# Escherichia coli [36] = assay: Antibacterial activity against Escherichia coli ATCC 8739 after 24 hrs by broth microdilution method; format: functional; settings: ATCC 8739, 24 h
# Pseudomonas aeruginosa [37] = assay: Antibacterial activity against Pseudomonas aeruginosa ATCC 9027 after 24 hrs by broth microdilution method; format: functional; settings: ATCC 9027, 24 h
# Lichtheimia corymbifera [38] = assay: Antifungal activity against Absidia corymbifera 272 after 48 hrs by broth microdilution method; format: functional; settings: Lichtheimia corymbifera, 272, 48 h
# CHO-K1 = assay: Cytotoxicity against CHOK1 cells after 24 hrs by MTT assay; format: cell-based; settings: Cricetulus griseus, CHO-K1, 24 h
# Mycobacterium avium [39] = assay: Antimycobacterial activity against Mycobacterium avium CNCTC My 330/80 after 14 days by micromethod; format: functional; settings: CNCTC My 330/80, 336 h
# Nakaseomyces glabratus [40] = assay: Antifungal activity against Candida glabrata 20/I after 48 hrs by broth microdilution method; format: functional
# Escherichia coli [41] = assay: Antibacterial activity against Escherichia coli ATCC 8739 after 48 hrs by broth microdilution method; format: functional; settings: ATCC 8739, 48 h
# Klebsiella pneumoniae [42] = assay: Antibacterial activity against Klebsiella pneumoniae HK11750/08 after 48 hrs by broth microdilution method; format: functional; settings: HK11750/08, 48 h
smiles,measurement,setting,value
O=[N+]([O-])c1cc(-c2nnn(CSc3nnnn3-c3ccc(Cl)cc3)n2)cc([N+](=O)[O-])c1,MIC,Candida tropicalis [1],> 125 µM
same,MIC,Klebsiella pneumoniae [2],> 125 µM
same,MIC,Trichosporon asahii [3],> 125 µM
same,MIC,[4],125 µM
same,MIC99,Mycobacterium avium [5],4 µM
same,MIC,Trichosporon asahii [6],> 125 µM
same,MIC99,[7],0.03 µM
same,MIC,[8],> 125 µM
same,MIC,Pseudomonas aeruginosa [9],> 125 µM
same,MIC99,Mycobacterium kansasii [10],0.5 µM
same,MIC,Staphylococcus aureus [11],> 125 µM
same,MIC,Candida albicans [12],> 125 µM
same,MIC99,[13],0.03 µM
same,MIC,Aspergillus fumigatus [14],> 125 µM
same,MIC,Enterococcus sp. [15],125 µM
same,MIC,Klebsiella pneumoniae [16],> 125 µM
same,MIC99,Mycobacterium kansasii [17],2 µM
same,MIC99,Mycobacterium kansasii [18],1 µM
same,MIC,[19],> 125 µM
same,MIC99,Mycobacterium kansasii [20],0.5 µM
same,MIC,Aspergillus fumigatus [21],> 125 µM
same,MIC,Staphylococcus aureus [22],> 125 µM
same,MIC,Staphylococcus aureus [23],> 125 µM
same,MIC,Enterococcus sp. [24],> 125 µM
same,MIC,Lichtheimia corymbifera [25],> 125 µM
same,MIC,Klebsiella pneumoniae [26],> 125 µM
same,MIC99,Mycobacterium kansasii [27],0.5 µM
same,MIC,Pichia kudriavzevii [28],> 125 µM
same,MIC,Pichia kudriavzevii [29],> 125 µM
same,MIC,Candida albicans [30],> 125 µM
same,MIC,Candida tropicalis [31],> 125 µM
same,MIC,Staphylococcus aureus [32],> 125 µM
same,MIC,[33],> 125 µM
same,MIC,Nakaseomyces glabratus [34],> 125 µM
same,MIC99,Mycobacterium kansasii [35],0.25 µM
same,MIC,Escherichia coli [36],> 125 µM
same,MIC,Pseudomonas aeruginosa [37],> 125 µM
same,MIC,Lichtheimia corymbifera [38],> 125 µM
same,IC50,CHO-K1,14 µM
same,MIC99,Mycobacterium avium [39],2 µM
same,MIC,Nakaseomyces glabratus [40],> 125 µM
same,MIC,Escherichia coli [41],> 125 µM
same,MIC,Klebsiella pneumoniae [42],> 125 µM
COc1ccc(Cn2nnnc2-c2cc([N+](=O)[O-])cc([N+](=O)[O-])c2)cc1,MIC,Candida tropicalis [1],500 µM
same,MIC,Klebsiella pneumoniae [2],250 µM
same,MIC,Trichosporon asahii [3],500 µM
same,MIC,[4],62.5 µM
same,MIC99,Mycobacterium avium [5],32 µM
same,MIC,Trichosporon asahii [6],500 µM
same,MIC99,[7],8 µM
same,MIC,[8],500 µM
same,MIC,Pseudomonas aeruginosa [9],> 500 µM
same,MIC99,Mycobacterium kansasii [10],8 µM
same,MIC,Staphylococcus aureus [11],31.2 µM
same,MIC,Candida albicans [12],250 µM
same,MIC99,[13],8 µM
same,MIC,Aspergillus fumigatus [14],500 µM
same,MIC,Enterococcus sp. [15],62.5 µM
same,MIC,Klebsiella pneumoniae [16],250 µM
same,MIC99,Mycobacterium kansasii [17],32 µM
same,MIC99,Mycobacterium kansasii [18],32 µM
same,MIC,[19],62.5 µM
same,MIC99,Mycobacterium kansasii [20],16 µM
same,MIC,Aspergillus fumigatus [21],500 µM
same,MIC,Staphylococcus aureus [22],15.6 µM
same,MIC,Staphylococcus aureus [23],62.5 µM
same,MIC,Enterococcus sp. [24],62.5 µM
same,MIC,Lichtheimia corymbifera [25],500 µM
same,MIC,Klebsiella pneumoniae [26],125 µM
same,MIC99,Mycobacterium kansasii [27],16 µM
same,MIC,Pichia kudriavzevii [28],250 µM
same,MIC,Pichia kudriavzevii [29],250 µM
same,MIC,Candida albicans [30],250 µM
same,MIC,Candida tropicalis [31],500 µM
same,MIC,Staphylococcus aureus [32],62.5 µM
same,MIC,[33],500 µM
same,MIC,Nakaseomyces glabratus [34],500 µM
same,MIC99,Mycobacterium kansasii [35],8 µM
same,MIC,Escherichia coli [36],125 µM
same,MIC,Pseudomonas aeruginosa [37],> 500 µM
same,MIC,Lichtheimia corymbifera [38],500 µM
same,IC50,CHO-K1,21 µM
same,MIC99,Mycobacterium avium [39],16 µM
same,MIC,Nakaseomyces glabratus [40],500 µM
same,MIC,Escherichia coli [41],62.5 µM
same,MIC,Klebsiella pneumoniae [42],125 µM
